Key:
B16 melanocytes [1] = test: Viability of the cells, test of reduction of MTT; format: cell-based; conditions: 72 h
Description: (§1) Melanocytes were seeded on a 96-well plate and cultured for 24 h (37° C., 5% CO2, DMEM 1 g/L glucose without phenol red supplemented with glucose 3 g/L, L-glutamine 2 mM, penicillin 50 U/mL, streptomycin 50 μg/mL, fetal calf serum (FCS) 10%). […] Each experimental condition was carried out with n=3, apart from the controls carried out with n=6. The cells were then incubated for 72 h. Wells without cells received in parallel the same quantities of medium, supplemented or not with NDP-MSH and with or without the test compounds or the reference in order to quantify the background noise associated with the presence of the compounds.
At the end of the treatment, the cells were incubated in the presence of MTT (3-(4,5-dimethylthiazol-2-yl)-2,5-diphenyl tetrazolium bromide), the conversion of which to blue crystals of formazan is proportional to the activity of succinate dehydrogenase (mitochondrial enzyme). After disruption of the cells, the formazan was dissolved in DMSO medium and the optical density (OD), representative of the number of live cells and of their metabolic reactivity, was measured with a microplate reader at 540 nm (VERSAmax, Molecular Devices).

B16 melanocytes [2] = test: Screening of anti-melanogenesis activity: melanin assay in B16 melanocytes stimulated with NDP-MSH; format: cell-based; conditions: 72 h
Description: This was carried out for compounds in solution in DMSO. The synthesis of melanin was measured in a model of B16 melanocytes stimulated with a stable derivative of α-MSH (natural hormone that stimulates melanogenesis: Melanocyte Stimulating Hormone): NDP-MSH ([Nle^4, DPhe7]-α-MSH).
as §1
At the end of 72 hours of incubation, the total melanin (intra- and extracellular) was quantified by measuring the absorbance of each sample at 405 nm (direct reading of the culture plates) against a standard range of melanin (melanin concentrations tested from 0.78 to 100 μg/mL). The background noise, measured in the wells without cells, was subtracted from the values measured so that only the effect connected with the production of melanin is taken into account, without including any interference connected with the presence of the compounds. The results were expressed in percentage of melanin relative to the control as well as in percentage inhibition.

Molecule	Viability (MTT) % stimulated control (B16 melanocytes [1]; 30 μM)	Viability (MTT) % stimulated control (B16 melanocytes [1]; 100 μM)	Normalized data inhibition (%) (B16 melanocytes [2]; 30 μM)	Normalized data inhibition (%) (B16 melanocytes [2]; 100 μM)	also measured
O=C(N[C@H]1CCC[C@H]1NC(=O)/C(F)=C\CCCCCCCCOC1CCCCO1)/C(F)=C\CCCCCCCCOC1CCCCO1 (stereo partly drawn) [c72]	102 % stimulated control	86 % stimulated control	87%	112%	
O=C(NC1CC1NC(=O)C(F)=CCCCCCOC1CCCCO1)C(F)=CCCCCCOC1CCCCO1 (mixture of isomers) [c108]	75 % stimulated control	80 % stimulated control	73%	105%	
O=C(NC1CCC(NC(=O)C(F)=CCCCCCOC2CCCCO2)C1)C(F)=CCCCCCOC1CCCCO1 (stereo not drawn) [c149]	87 % stimulated control	28 % stimulated control	108%	120%	
O=C(NC1CCC(NC(=O)C(F)=CCCCCCCCOC2CCCCO2)C1)C(F)=CCCCCCCCOC1CCCCO1 (mixture of isomers) [c69]	87 % stimulated control	78 % stimulated control	116%	112%	
O=C(NC1CC1NC(=O)C(F)=CCCCCCOC1CCCCO1)C(F)=CCCCCCOC1CCCCO1 (stereo not drawn) [c111]	98 % stimulated control	57 % stimulated control	25%	108%	
(E)-14-tetrahydropyranyloxy-tetradec-2-enoic acid [Ref3, reference compound]	92 % stimulated control		0%	11%	
O=C(N[C@@H]1CC[C@H](NC(=O)/C(F)=C/CCCCCCCCO)C1)/C(F)=C/CCCCCCCCO [c58]	101 % stimulated control	98 % stimulated control	62%	83%	
O=C(N[C@H]1CCC[C@H]1NC(=O)/C(F)=C\CCCCCCCCO)/C(F)=C\CCCCCCCCO [c49]	83 % stimulated control	0 % stimulated control	83%	118%	
O=C(NC1CCC(NC(=O)C(F)=CCCCCCOC2CCCCO2)C1)C(F)=CCCCCCOC1CCCCO1 (stereo not drawn) [c8]	86 % stimulated control	77 % stimulated control	86%	115%	
CCCCCC=CCC=CCCCCCCCC(=O)NC1CCC(NC(=O)CCCCCCCC=CCC=CCCCCC)C1 (stereo not drawn) [c135]			0%	90%	
O=C(NC1CCCC1NC(=O)C(F)=CCCCCCCCO)C(F)=CCCCCCCCO (mixture of isomers) [c46]	77 % stimulated control	68 % stimulated control	0%	75%	
CCCCCC=CCC=CCCCCCCCC(=O)NC1CC1NC(=O)CCCCCCCC=CCC=CCCCCC (stereo not drawn) [c122]			8%	109%	
O=C(NC1CCC(NC(=O)C(F)=CCCCCCO)C1)C(F)=CCCCCCO (racemic) [c115]	94 % stimulated control	97 % stimulated control	0%	95%	
O=C(NC1CC1NC(=O)C(F)=CCCCCCCCCO)C(F)=CCCCCCCCCO (mixture of isomers) [c37]	77 % stimulated control	83 % stimulated control	0%	92%	
O=C(N[C@H]1C[C@H]1NC(=O)C(F)=CCCCCCCCCCCCCCCCO)C(F)=CCCCCCCCCCCCCCCCO [c44]					Viability (MTT) % stimulated control (B16 melanocytes [1]; 1 μM): 87 % stimulated control; Viability (MTT) % stimulated control (B16 melanocytes [1]; 3 μM): 88 % stimulated control; Viability (MTT) % stimulated control (B16 melanocytes [1]; 10 μM): 91 % stimulated control; Normalized data inhibition (%) (B16 melanocytes [2]; 1 μM): −11%; Normalized data inhibition (%) (B16 melanocytes [2]; 3 μM): 36%; Normalized data inhibition (%) (B16 melanocytes [2]; 10 μM): 69%
O=C(/C=C/CCCCCCCCO)N[C@H]1CCC[C@H]1NC(=O)/C=C/CCCCCCCCO [c15]	76 % stimulated control	74 % stimulated control	2%	73%	
O=C(N[C@@H]1CC[C@H](NC(=O)/C(F)=C\CCCCCCCOC2CCCCO2)C1)/C(F)=C\CCCCCCCOC1CCCCO1 (stereo partly drawn) [c70]	90 % stimulated control	86 % stimulated control	115%	116%	
O=c1cc(CO)occ1O [Kojic acid, reference compound]					Viability (MTT) % stimulated control (B16 melanocytes [1]; 25 μg/mL): 103 % stimulated control; Viability (MTT) % stimulated control (B16 melanocytes [1]; 100 μg/mL): 99 % stimulated control; Viability (MTT) % stimulated control (B16 melanocytes [1]; 400 μg/mL): 96 % stimulated control; inhibition at 25 µg/mL (B16 melanocytes [2]; Melanocyte, 25 μg/mL, read-out: Normalized data inhibition (%)): 59%; inhibition at 100 µg/mL (B16 melanocytes [2]; Melanocyte, 100 μg/mL, read-out: Normalized data inhibition (%)): 83%; inhibition at 400 µg/mL (B16 melanocytes [2]; Melanocyte, 400 μg/mL, read-out: Normalized data inhibition (%)): 93%
O=C(NC1CCC(NC(=O)C(F)=CCCCCCCCCOC2CCCCO2)C1)C(F)=CCCCCCCCCOC1CCCCO1 (mixture of isomers) [c74]	78 % stimulated control	81 % stimulated control	110%	111%	
O=C(NC1CCCC1NC(=O)C(F)=CCCCCCCCOC1CCCCO1)C(F)=CCCCCCCCOC1CCCCO1 (mixture of isomers) [c66]	96 % stimulated control	93 % stimulated control	119%	118%	
O=C(NC1CCC(NC(=O)C(F)=CCCCCCO)C1)C(F)=CCCCCCO (stereo not drawn) [c116]	88 % stimulated control	91 % stimulated control	6%	87%	
O=C(N[C@H]1CCC[C@H]1NC(=O)/C(F)=C\CCCCCCCOC1CCCCO1)/C(F)=C\CCCCCCCOC1CCCCO1 (stereo partly drawn) [c67]	71 % stimulated control	81 % stimulated control	119%	116%	
O=C(/C=C/CCCCCCCCCCCOC1CCCCO1)N[C@@H]1CC[C@H](NC(=O)/C=C/CCCCCCCCCCCOC2CCCCO2)C1 (stereo partly drawn) [c30]	76 % stimulated control				Viability (MTT) % stimulated control (B16 melanocytes [1]; 10 μM): 77 % stimulated control; inhibition at 10 µM (B16 melanocytes [2]; Melanocyte, 10 μM, read-out: Normalized data inhibition (%)): 42%; inhibition at 30 µM (B16 melanocytes [2]; Melanocyte, 30 μM, read-out: Normalized data inhibition (%)): 71%
O=C(NC1CC1NC(=O)C(F)=CCCCCCOC1CCCCO1)C(F)=CCCCCCOC1CCCCO1 (racemic) [c110]	83 % stimulated control	0 % stimulated control	104%	120%	
O=C(NC1CCC(NC(=O)C(F)=CCCCCCCCCCCCO)C1)C(F)=CCCCCCCCCCCCO (stereo not drawn) [c60]	105 % stimulated control	101 % stimulated control	83%	97%	
O=C(NC1CCCC1NC(=O)C(F)=CCCCCCOC1CCCCO1)C(F)=CCCCCCOC1CCCCO1 (stereo not drawn) [c107]	95 % stimulated control	26 % stimulated control	66%	120%	
O=C(N[C@@H]1CC[C@H](NC(=O)/C(F)=C/CCCCCCCOC2CCCCO2)C1)/C(F)=C/CCCCCCCOC1CCCCO1 (stereo partly drawn) [c68]	64 % stimulated control	50 % stimulated control	95%	108%	
O=C(O)C(F)=CCCCCCCCCCCCCCCCO [Ref 2, 18-Hydroxy-octadec-2-en-2-fluoro-oic acid, reference compound]	83 % stimulated control	72 % stimulated control	0%	79%	
